Laboratory results: US5274121A, “N-methyl-N-[4-(1-pyrrolidinyl)-2-butynyl]amide congeners as muscarinic agents” (priority 1992, dated 1993)
Like-named read-outs stand apart in the source and are kept apart here.

Columns and labels:
m4 AChR = conditions: cited from earlier work
m2 AChR = conditions: cited from earlier work
m5 AChR = conditions: cited from earlier work
m3 AChR = conditions: cited from earlier work
M2 AChRs = conditions: M2 AChR; cited from earlier work
M1 AChRs = conditions: M1 AChR; cited from earlier work
[1] = target: T1, muscarinic receptors, SK-N-SH cell membranes (m4 AChR) (Homo sapiens, UniProt P20309); assay: Inhibition of [3H]-NMS binding to membranes from SK-N-SH cells; conditions: for inhibition at 50 µM: read-out: binding (% inhibition of 3H-NMS binding); for inhibition at 100 µM: conc. of compounds = 100 μM
T1 construct: membranes from SK-N-SH cells; endogenous in cells; host or cells: SK-N-SH human neuroblastoma cells (crude membrane fraction)
T1 sequence (P20309 whole entry): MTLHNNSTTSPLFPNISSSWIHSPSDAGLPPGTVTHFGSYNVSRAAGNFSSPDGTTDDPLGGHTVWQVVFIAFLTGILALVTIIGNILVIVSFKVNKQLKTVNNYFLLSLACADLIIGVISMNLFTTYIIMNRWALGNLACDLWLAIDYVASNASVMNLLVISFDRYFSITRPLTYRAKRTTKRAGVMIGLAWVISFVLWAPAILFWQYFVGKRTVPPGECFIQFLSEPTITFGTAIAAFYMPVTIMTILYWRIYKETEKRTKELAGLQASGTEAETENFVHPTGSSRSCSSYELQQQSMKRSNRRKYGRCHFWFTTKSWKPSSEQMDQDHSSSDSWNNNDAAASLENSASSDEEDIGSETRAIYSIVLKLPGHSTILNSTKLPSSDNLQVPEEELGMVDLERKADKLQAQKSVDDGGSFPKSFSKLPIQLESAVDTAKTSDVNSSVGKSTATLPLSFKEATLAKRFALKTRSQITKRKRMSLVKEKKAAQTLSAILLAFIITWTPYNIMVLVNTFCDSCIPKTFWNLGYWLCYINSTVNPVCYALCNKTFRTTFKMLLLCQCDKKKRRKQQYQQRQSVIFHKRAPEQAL
Text: (§1) Compounds of the present invention were screened for their biological activity. Assay systems using SK-N-SH human neuroblastoma cells which express only m4 -AChRs coupled to PI turnover, and NG108-15 neuroblastoma x glioma cells which express only m3 AChRs coupled to adenylate cyclase inhibition were used.
(§2) Compounds of the present invention were also screened for their relative binding affinities. Assay systems which measured the inhibition of ^3 H-N-methylscopolamine (^3 H-NMS) binding to membranes from NG108-15 cells and membranes from SK-N-SH cells were used.
(§3) Inhibition of [^3 H]-NMS binding
(§4) Cells were grown to confluence, harvested, and a crude membrane fraction was obtained. […] The total volume was 1 mL. The incubation was terminated by rapid filtration over GF/B filters using a Brandel cell harvester. The filters were washed three times with ice-cold 0.9% NaCl, equilibrated in scintillation counting fluid and counted on a Beckman LS 5801 liquid scintillation counter at 47% efficiency. Non-specific binding was determined by coincubation with 1 μM atropine, and amounted to less than 15% of total counts. It was routinely subtracted from the total counts.

[2] = system: NG108-15 neuroblastoma x glioma cells (m3 AChR); assay: Inhibition of PGE1-stimulated cAMP levels in NG108-15 cells; assay type: cell-based; conditions: read-out: cAMP Inhib (relative to OXO-M)
[3] = target: T2, muscarinic receptors, NG108-15 cell membranes (m3 AChR) (Mus musculus, UniProt P32211); assay: Inhibition of [3H]-NMS binding to membranes from NG108-15 cells; conditions: for inhibition at 50 µM: read-out: binding (% inhibition of 3H-NMS binding); for inhibition at 100 µM: conc. of compounds = 100 μM
T2 construct: membranes from NG108-15 cells; endogenous in cells; host or cells: NG108-15 neuroblastoma x glioma hybrid cells (crude membrane fraction)
T2 sequence (P32211 1-479): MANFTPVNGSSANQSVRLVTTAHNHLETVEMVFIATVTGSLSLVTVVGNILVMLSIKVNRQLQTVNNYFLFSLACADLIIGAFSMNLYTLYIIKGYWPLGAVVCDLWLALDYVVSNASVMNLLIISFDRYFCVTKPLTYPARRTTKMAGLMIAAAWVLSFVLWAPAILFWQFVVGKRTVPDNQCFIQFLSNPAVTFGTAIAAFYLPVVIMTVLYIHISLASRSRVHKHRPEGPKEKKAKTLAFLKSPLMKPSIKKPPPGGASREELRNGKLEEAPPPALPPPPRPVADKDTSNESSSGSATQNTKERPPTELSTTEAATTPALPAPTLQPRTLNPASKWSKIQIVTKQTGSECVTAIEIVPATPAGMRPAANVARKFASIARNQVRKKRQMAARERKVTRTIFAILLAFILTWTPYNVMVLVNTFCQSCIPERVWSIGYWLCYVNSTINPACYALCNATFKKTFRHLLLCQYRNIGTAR
Text: as §1, §2, §3, §4

[4] = system: SK-N-SH human neuroblastoma cells (m4 AChR); assay: Stimulation of PI turnover in SK-N-SH cells; assay type: cell-based; conditions: Homo sapiens, 0.5 h
Method: (§5) Compounds of the present invention were tested for their binding affinities and activation of second messengers in selective muscarinic cholinergic receptor systems. It is believed that m1 -, m4 -, and m5 AChRs couple exclusively to PI turnover, whereas m2 - and m3 -AChRs couple only to adenylate cyclase inhibition.
as §1
Stimulation of PI turnover in SK-N-SH cells
Cells were plated into 24-well plates at 100,000 cells per well. After 24 hours, they were labeled overnight with 2 μCi per well of [^3 H]-myo-inositol (American Radiolabeled Chemicals, Inc., St. Louis, Mo.; 15 Ci/mM; 2 μL of stock per mL of media). The cells were then rinsed twice with 10 mM LiCl in DMEM-Hepes and the cells were incubated in this solution for 5 min at 37° C. The indicated compound was then added at a final concentration of 100 μM and the cells were incubated for another 30 min at 37° C. The reaction was stopped by aspirating the solution and adding cold methanol to the cells. After transferring the cells to a glass tube and sonicating briefly, chloroform and water were added to make a two-phase system. The upper aqueous phase was applied to 0.6 mL anion exchange columns (AG X8, Bio-Rad) and the columns were washed and total inositol phosphates were eluted with 1M ammonium formate and 0.1M formic acid.

muscarinic receptors = conditions: literature; cited from earlier work
[5] = system: NG108-15 neuroblastoma x glioma cells (m3 AChR); assay: Inhibition of PGE1-stimulated cAMP levels in NG108-15 cells; assay type: cell-based; conditions: for inhibition at 100 µM: NG108-15, NG108-15 cells, read-out: cAMP Inhib; for inhibition at 100 µM / cAMP Inhib: relative to control with no compounds added, conc. of compounds = 100 μM; for cAMP Inhib: NG108-15 cells, 100 µM
Method: as §5, §1
Inhibition of PGE1 -stimulated cAMP levels in NG108-15 cells
Cells were plated in 24-well plates and were grown to 90% confluence. The growth media was then replaced with a solution of 1 mM IBMX in DMEM-Hepes (0.5 mL per well) and the cells were incubated for 10 min at 37° C. Agonists were then added at a final concentration of 100 μM, along with PGE1 (final conc, 5 μM), and the cells were incubated for a further 15 min at 37° C. The reaction Was terminated by aspirating the solution and adding 0.5 mL of 0.1N HCl. In order to extract the cAMP from the cells, they were incubated in 0.1 N HCl for 30 min at room temperature. An aliquot (35 50 μL) was removed, lyophilized, and assayed for cAMP by radioimmunoassay.

[6] = SK-N-SH cells, conc. of compound = 50 μM
[7] = 0.25 h, NG108-15 cells, data relative to OXO-M, conc. of compounds = 50 μM
[8] = NG108-15 cells, conc. of compound = 50 μM
[9] = SK-N-SH cells, data relative to OXO-M, conc. of compounds = 100 μM, read-out: Pi turnover (relative to OXO-M)
[10] = SK-N-SH cells, percent relative to the activity of OXO-M, conc. of compounds = 100 μM, read-out: Pi turnover

| SMILES | inhibition at 50 µM [1, 6] | Emax at 50 µM [2, 7] | inhibition at 50 µM [3, 8] | Emax at 100 µM [4, 9] | muscarinic activity, in words (muscarinic receptors) | other results |
| --- | --- | --- | --- | --- | --- | --- |
| CN1CCN(CC(=O)N2c3ccccc3C(=O)Nc3cccnc32)CC1 [pirenzepine] |  |  |  |  |  | affinity for pirenzepine (m4 AChR): high affinity; affinity for pirenzepine (m2 AChR): low affinity; affinity for pirenzepine (m5 AChR): intermediate affinity; affinity for pirenzepine (m3 AChR): intermediate affinity; affinity for pirenzepine (M2 AChRs): low-affinity; affinity for pirenzepine (M1 AChRs): high-affinity |
| CN(CC#CCN1CCCC1)C(=O)Oc1ccc(Cl)cc1 [Compound 027] |  |  |  |  |  | inhibition at 50 µM [1]: 62 ± 1%; Emax at 50 µM ([2]; NG108-15, 0.25 h): 40 ± 10%; inhibition at 50 µM [3]: 27 ± 4%; Emax at 100 µM ([4]; SK-N-SH, read-out: Pi turnover (relative to OXO-M)): 1 ± 1% |
| CC(=O)NCCNC(=O)CCC(=O)N(C)CC#CCN1CCCC1 [Compound 023] | 6 ± 5% | 20 ± 10% | 6 ± 4% | 6 ± 4% |  |  |
| CN(CC#CCN1CCCC1)C(=O)c1ccccc1 [Compound 032] | 20 ± 5% | 50 ± 20% | 7 ± 4% | 4 ± 2% |  |  |
| CN(CC#CCN1CCCC1)C(=O)c1cccc(Cl)c1 [Compound 026] | 27 ± 10% | 30 ± 10% | 17 ± 4% | 1 ± 1% |  |  |
| CC(=O)N(C)C(C)C#CCN1CCCC1 (stereo not drawn) [BM 5, reference compound] | 95 ± 1% |  | 91 ± 1% |  | potent muscarinic agent with presynaptic antagonist and postsynaptic agonist activity | inhibition at 100 µM ([1]; SK-N-SH cells): 99 ± 1%; inhibition at 100 µM ([3]; NG108-15 cells): 97 ± 2% |
| C[N+](C)(C)CC#CCN1CCCC1=O [OXO-M, oxotremorine-M, reference compound] | 49 ± 12% | 100% | 74 ± 3% | 100% |  | inhibition at 100 µM ([1]; SK-N-SH cells): 52.1 ± 1.2%; inhibition at 100 µM ([3]; NG108-15 cells): 96.2 ± 2.1%; Emax at 100 µM [4, 10]: 100%; inhibition at 100 µM [5]: 64.1 ± 1.9%; cAMP Inhib [5]: 65±3% |
| CC(=O)N(C)CC#CCN1CCCC1 [UH 5, reference compound] |  |  |  |  | maintains agonist activity and is nearly equi-potent to oxotremorine | Emax at 100 µM [4, 10]: 54%; agonist selectivity, in words ([5]; NG108-15 (cAMP) versus SK-N-SH (PI turnover)): acted as an agonist in both systems; inhibition at 100 µM [5]: 63.2 ± 6%; cAMP Inhib [5]: 63% |
| O=C1CCCN1CC#CCN1CCCC1 [oxotremorine] |  |  |  |  | potent and moderately selective central muscarinic agonist |  |
